This is an account of results in paper PMC12631721, “Preclinical Screening Platform Identifies Azatadine‐Dimaleate as a Potent Repurposed Therapeutic Against SARS‐CoV‐2 Infection” (Journal of Medical Virology, 2025).

For data set [1], the system named is SARS‐CoV‐2. The experiment in a line: CPE-based high-throughput screen (CellTox Green) in Vero cells. Format: cell-based.
Data set [2] concerns SARS‐CoV‐2. The experiment in a line: CPE-based high-throughput screen (CellTox Green) in Calu‐3 cells. The class given is cell-based.
Data set [3] has as its system SARS‐CoV‐2. The experiment in a line: Viral NSP12 RNA by RT‐qPCR in Calu‐3 cells. To be noted: Calu‐3, RT‐qPCR. The class given is cell-based. Here is the method: (A) Cell viability assessment in uninfected Calu‐3 cells treated with DMSO control, Azatadine‐Dimaleate (25 µM), Remdesivir (1 µM), or the combination (Remdesivir 1 µM + Azatadine 25 µM) for 72 h. […] (B) Release of infectious virus was quantified by plaque assay. Calu‐3 cells were pretreated with Azatadine‐Dimaleate (5 & 25 µM) or Remdesivir (1 µM) 24 h before infection with SARS‐CoV‐2 PHE (MOI = 0.1). (C) Levels of viral NSP12 RNA was measured by RT‐qPCR following treatment with Azatadine‐Dimaleate at (5 & 25 µM) or Remdesivir (1 µM) 24 h before infection with SARS‐CoV‐2 (PHE MOI = 0.1). Data bars represent mean ± SEM of n = 3 independent experiments. Statistical analysis by one‐way ANOVA, ***p ≤ 0.001 vs DMSO control. […] DMSO alone was used as a negative control. At 72 hpi viral titres were determined by plaque assay. Data points represent an average of 3 separate repeat experiments ±SEM.
For RNA extraction, cultures were incubated with 400 µL of Lysis/Binding buffer (High Pure Isolation Kit; Roche) for 5 min at room temperature. […] RNA was quantified by spectrophotometry and 1 µg was transcribed into cDNA using The High‐Capacity cDNA Reverse Transcription Kit (Applied Biosystems, Thermo Fisher Scientific) in 0.2 mL PCR reaction tubes (Eppendorf). […] Ready‐made catalogue assays for a set of primers and probes (FAM labelled) (Thermofisher) specific for human genes involved in the innate immune response to SARS‐COV‐2 such as: IFNL1 (Assay ID: Hs00601677 g1, Cat. No:433118) IFNB (Assay ID:Hs01077958_s1, Cat. No. 4331182), ISG15 (Assay ID: Hs01921425 s1, catalogue no:4331182), IFIT1 (Hs03027069_s1, Cat no. 4331182), IL6 (Hs00174131_m1, Cat no. 4331182) and CXCL8/IL8 (Bt03211906_m1, Cat no. 4331182) were selected for analyses.
(§1) When performing qPCR the Roche probe mixes for the detection of TBP (Cat. No. 05189284001) and GAPDH (Assay ID: Hs02786624_g1, Cat. No:4331182) were used as references. The LightCycler® 480 Probes Master mix was used following the manufacturer's protocol to quantify the mRNA expression levels for all genes of interest. […]

For data set [4], the system named is SARS‐CoV‐2. Put plainly: microbe, parasite or virus in culture. Format: cell-based. To be noted: for Improvement in potency in combination vs alone: Calu‐3, ratio of EC50 alone to EC50 in combination; for pEC50: Severe acute respiratory syndrome coronavirus 2, Calu‐3, pretreated 24 h, PHE MOI = 0.1, 72 hpi, viral titres by plaque assay, read-out: EC50, drug alone.

The test system of data set [5] is SARS‐CoV‐2. The class given is cell-based. Particulars: Calu‐3 pretreated 24 h before infection, MOI = 0.1, plaque assay.
The next data set deals with Calu‐3 cells. The experiment in a line: Cell viability / cytotoxicity in uninfected Calu‐3 cells. Particulars: 72 h, Azatadine‐Dimaleate 25 µM, Remdesivir 1 µM, or combination (1 µM + 25 µM).
The next data set has as its system SARS‐CoV‐2 LIV strain. The class given is in vivo, K18‐hACE2 mice. Particulars: for Mean weight loss: Azatadine‐Dimaleate 10 mg/kg i.p. daily, remdesivir (as GS‐441524) 25 mg/kg daily, vehicle 12%; for Histopathology score: single animal shown in Fig. S5, 4 dpi, vehicle treated animal score 4.
In data set [6] the test system is SARS‐CoV‐2. The experiment in a line: microbe, parasite or virus in culture. The class given is cell-based.
The test system of data set [7] is SARS‐CoV‐2. The class given is cell-based. Particulars: WD‐PBECs; for Reduction in viral titers compared to DMSO (significance): Remdesivir 1 µM, Azatadine‐Dimaleate 25 µM, or combination 0.4 µM + 10 µM, 48, 72, 96 hpi.
Data set [8] concerns IFNL1, IFNB, IFIT1, ISG15, IL6, CXCL8/IL8. The experiment in a line: Innate immune response gene expression by RT‐qPCR in infected WD‐PBECs. Format: cell-based, human. To be noted: 96 hpi, treatment from 24 hpi. Here is the method: Figure 5 Azatadine‐Dimaleate modulates innate immune responses in WD‐PBEC cultures. RNA samples were harvested at 96 hpi from each condition in duplicate from WD‐PBECs and a panel of selected innate immune genes (IFNL1, IFNB, IFIT1, ISG15, IL‐6, CXCL8/IL8), were quantified using RT‐qPCR assay. The relative ratios for each gene were calculated in reference to a house keeping gene GAPDH using light cycler 96 software 1.1. The data value plotted for each donor in each condition is an average of 2 biological duplicate Transwells and four technical replicates. Where possible, statistical significance was determined using unpaired Student t‐test between DMSO control and individual treatments (*p ≤ 0.05, **p ≤ 0.01).
For RNA extraction, cultures were incubated with 400 µL of Lysis/Binding buffer (High Pure Isolation Kit; Roche) for 5 min at room temperature. […] RNA was quantified by spectrophotometry and 1 µg was transcribed into cDNA using The High‐Capacity cDNA Reverse Transcription Kit (Applied Biosystems, Thermo Fisher Scientific) in 0.2 mL PCR reaction tubes (Eppendorf). […]
as §1

For data set [9], the system named is SARS‐CoV‐2. Set-up: method as in PMID 37100830. Particulars: clinical trial by Klussmann and colleagues; cited from earlier work.
The test system of data set [10] is SARS‐CoV‐2. On the set-up: method as in PMID 32366720. Particulars: Vero cells; cited from earlier work.
Setting [11] is: Vero cells, 5 µM, drug 24 h before infection, MOI = 0.1, 72 hpi.
Where [12] appears, read: Calu‐3 cells, 5 µM, drug 24 h before infection, MOI = 0.1, 72 hpi.
[13] abbreviates: Severe acute respiratory syndrome coronavirus 2, Vero cells, 5 µM, drug 24 h before infection, MOI = 0.1, 72 hpi.
[14] abbreviates: Severe acute respiratory syndrome coronavirus 2, Calu‐3 cells, 5 µM, drug 24 h before infection, MOI = 0.1, 72 hpi.
[15] abbreviates: Severe acute respiratory syndrome coronavirus 2, Calu‐3 cells, PHE MOI = 0.1, 72 hpi, 7 serial 1 in 2 dilutions from 20 µM, read-out: EC50 (CPE inhibition).

Each structure is given as a SMILES string. pEC50, pIC50: −log10 of the molar value. Several values for one entry are separate records, joined by “and”; a condition that tells them apart may be missing. Equal entries are not always repeated. Entries after “also recorded” stand apart in the source; their conditions may differ. Where two headings read alike, the source gives them in different places.

As to `CS(=O)(=O)O.CS(=O)(=O)O.Cc1cccc(/C=N/Nc2cc(N3CCOCC3)nc(OCCc3ccccn3)n2)c1` [Apilimod (mesylate)], the “% of CPE inhibition” value is given as 100% in the data set on SARS‐CoV‐2 [1] (setting [11]) and “negligible antiviral activity” with SARS‐CoV‐2 [2] (setting [12]).

For `CN1CCC(=C2c3ccccc3CCc3cccnc32)CC1` [Azatadine‐Dimaleate], the “Reduction of viral NSP12 RNA levels relative to untreated controls” value with SARS‐CoV‐2 [3] (5 µM) is “approximately 50%”. The “Suppression of viral NSP12 RNA levels” value in the data set on SARS‐CoV‐2 [3] (25 µM) was above 95%. The “Improvement in potency in combination vs alone” value in the data set with SARS‐CoV‐2 [4] was “twofold”. Besides, the pEC50 with SARS‐CoV‐2 [4] and in the data set with SARS‐CoV‐2 [6] (setting [15]) was 5.40 each time. Besides, the “Reduction in viral titres” value in the data set on SARS‐CoV‐2 [5] (5 µM) is “approximately 100 fold”; with SARS‐CoV‐2 [5] (25 µM), ~ 5,000 fold and > 5,000 fold. Further, the “Cytotoxicity (cell viability)” value in the data set with Calu‐3 cells is on record as “no discernible toxicity; also recorded: No cytotoxic effects”. The inhibition at 5 µM is 88.5% with SARS‐CoV‐2 [1] (setting [13]) and 97.6% in the data set on SARS‐CoV‐2 [2] (setting [14]). Moreover, the “Reduction of viral antigen expression in lung (immuno‐stained area)” value with SARS‐CoV‐2 LIV strain (day 4 post infection, morphometric analysis of SARS‐CoV‐2 N antigen) is “approximately 50%”; with SARS‐CoV‐2 LIV strain (mouse, in vivo), “halved”. Further, in the data set on SARS‐CoV‐2 LIV strain (day 4 post infection), the Mean weight loss stood at 4%. Besides, in the data set with SARS‐CoV‐2 LIV strain (mouse, in vivo), the “Infectious virus in lung by plaque assay vs vehicle” value was “statistical significance reached”. The compound also showed a Histopathology score in the data set on SARS‐CoV‐2 LIV strain of 2. The “Lowering of peak viral titers compared to controls” value in the data set on SARS‐CoV‐2 [7] (48 hpi) stood at 1.4 log10; in the data set on SARS‐CoV‐2 [7] (96 hpi), 2.33 log10. Also, the “Reduction in viral titers compared to DMSO (significance)” value in the data set with SARS‐CoV‐2 [7] was “significantly reduced viral titers at 72 and 96 hpi”. Also, the “Expression of innate immune response genes (IFNL1, IFNB, IFIT1, ISG15, IL6, CXCL8/IL8)” value in [8] is reported as “significant reductions in all except CXCL8/IL8”.

`CN1CCCC(n2nc(Cc3ccc(Cl)cc3)c3ccccc3c2=O)CC1` (centres unmarked) [Azelastine]: the “Viral load after nasal administration” value in the data set on SARS‐CoV‐2 [9] is recorded as “significant viral load reduction”.

`CCN(CC)CCCC(C)Nc1ccnc2cc(Cl)ccc12` (centres unmarked) [Chloroquine] gave an inhibition at 5 µM with SARS‐CoV‐2 [1] (setting [13]) of 100%. The “% of CPE inhibition” value in the data set on SARS‐CoV‐2 [2] (setting [12]) was “negligible antiviral activity”.

On to `N#C[C@@]1(c2ccc3c(N)ncnn23)O[C@H](CO)[C@@H](O)[C@H]1O` [GS‐441524], for which the inhibition at 5 µM in the data set with SARS‐CoV‐2 [1] (Severe acute respiratory syndrome coronavirus 2, Vero) is 80 to 90%; with SARS‐CoV‐2 [2] (Severe acute respiratory syndrome coronavirus 2, Calu-3), 80 to 90%. The pEC50 with SARS‐CoV‐2 [6] (Severe acute respiratory syndrome coronavirus 2, Calu-3, read-out: EC50 (CPE inhibition)) was 6.07.

As for `CC(C)(C)[C@@H]1NC(=O)O[C@@H]2CCC[C@H]2OC/C=C/C(F)(F)c2nc3ccccc3nc2O[C@@H]2C[C@@H](C(=O)N[C@]3(C(=O)NS(=O)(=O)C4(C)CC4)C[C@H]3C(F)F)N(C2)C1=O` [Glecaprevir], the inhibition at 5 µM in the data set on SARS‐CoV‐2 [1] (setting [13]) and in the data set on SARS‐CoV‐2 [2] (setting [14]) was 80 to 90% in each case.

With `CCOC(=O)N1CCC(=C2c3ccc(Cl)cc3CCc3cccnc32)CC1` [Loratadine], the “% of CPE inhibition” value in the data set on SARS‐CoV‐2 [1] (setting [11]) and in the data set with SARS‐CoV‐2 [2] (setting [12]) was “negligible activity” in each case.

`c1ccc2c(c1)Sc1ccccc1N2CC1CN2CCC1CC2` (centres unmarked) [Mequitazine]: in the data set with SARS‐CoV‐2 [1] (setting [11]), the “% of CPE inhibition” value is “modest efficacy in Vero cells only”. Further, in the data set with SARS‐CoV‐2 [10], the pIC50 is 5.14.

Consider `CCC(CC)COC(=O)[C@H](C)N[P@](=O)(OC[C@H]1O[C@@](C#N)(c2ccc3c(N)ncnn23)[C@H](O)[C@@H]1O)Oc1ccccc1` [Remdesivir], for which the “Suppression of viral NSP12 RNA levels” value in the data set on SARS‐CoV‐2 [3] (1 µM) is reported as above 95%. In addition, in the data set on SARS‐CoV‐2 [4], the “Improvement in potency in combination vs alone” value is given as 2.4 fold and the negative-log EC50 (pEC50) was 6.22. Moreover, the “Inhibitory activity on viral titres” value in the data set with SARS‐CoV‐2 [5] (1 µM) is reported as “comparable inhibitory activity to 25 µM Azatadine‐Dimaleate”. Besides, the “Cytotoxicity (cell viability)” value in the data set with Calu‐3 cells was “No cytotoxic effects”. The Mean weight loss entry in the data set with SARS‐CoV‐2 LIV strain ([…]) is “failed to prevent significant weight loss”. Moreover, the “Pulmonary viral RNA load (qRT‐PCR) vs vehicle” value in the data set on SARS‐CoV‐2 LIV strain (mouse, in vivo) is recorded as “reduction achieved statistical significance”. In the data set on SARS‐CoV‐2 LIV strain, this compound displayed a Histopathology score of 3. In addition, the pEC50 in the data set on SARS‐CoV‐2 [6] (setting [15]) was 6.22. Further, the “Reduction in viral titers compared to DMSO (significance)” value with SARS‐CoV‐2 [7] is “greatest reduction in viral titers”.

With `CC(C)n1nc(-c2ccc3oc(N)nc3c2)c2c(N)ncnc21` [Sapanisertib], the inhibition at 5 µM in the data set with SARS‐CoV‐2 [1] (setting [13]) and in the data set on SARS‐CoV‐2 [2] (setting [14]) was 80 to 90% each time.

In the data set with SARS‐CoV‐2 [1] (setting [13]), `CCN(CCO)CCCC(C)Nc1ccnc2cc(Cl)ccc12` (centres unmarked) [hydroxychloroquine] registered an inhibition at 5 µM of 100%. Besides, in the data set on SARS‐CoV‐2 [2] (setting [12]), the “% of CPE inhibition” value is listed as “negligible antiviral activity”.
